Source: patent US20240158370A1, “CK1 alpha AND DUAL CK1 alpha / GSPT1 DEGRADING COMPOUNDS” (Innovo Therapeutics, Inc., priority 2022, published 2024)

Columns and labels:
Type in all cases: cell-based
Settings in all cases: six hours
GSPT1 [1] = molecular target: T1, GSPT1 (Homo sapiens, UniProt P15170+Q96SW2); assay: HiBiT degradation assay, GSPT1, Procedure B (Molt 4_hGSPT1_HiBIT cells); design: Molt 4_hGSPT1_HiBIT N-terminus tagged cells were generated using CRISPR technology; endogenous in cells; host or cells: Molt 4 cells, CRISPR-edited
Experimental: Molt 4_hGSPT1_HiBIT N-terminus tagged cells were generated using CRISPR technology. Cells were maintained in RPMI media (Thermo Fisher Scientific, Catalog #11875-093) containing 10% Fetal Bovine Serum (Thermo Fisher Scientific, Catalog #16140071) 1% Penicillin-Streptomycin (Thermo Fisher Scientific, Catalog #25200056). Cells were maintained at 37° C. in a 5% CO2 environment.
Compounds were spotted onto Cornin 384-Well, Cell Culture-Treated, Flat-Bottom, Low Flange Microplate (Fisher Scientific, Catalog #07-201-013) using a Tecan D300e digital dispenser. Ten-point dose response curves spanning from 10 μM to 0.005 μM with a 0.1% DMSO tolerance were used.
Cells were centrifuged for 5 minutes at 1200 RPMs. Cell culture media was aspirated off and cells were resuspended with RPMI+10% FBS. Cell density was determined using a Denovix CellDrop BF cell counter. Cell density was adjusted to 1×10^6 cells/ml. 40 μl of cells was added to compound treated tissue culture plates and incubated for six hours at 37° C. After six hours, cell culture plates were removed from tissue culture incubator and cooled to room temperature. 40 μl of Nano-GloHiBiT Lytic Detection Reagent (Promega, Catalog #N3040) was added to each well. Plates were placed on an orbital shaker (600 rpm) for 20 minutes. Luminescence was measured using an Envsion plate reader (Perkin Elmer). IC50 curves and Ymin were generated using a 4-parameter curve fit with GraphPad Prism software (Prism Corporation).
Results from the HiBiT assay (DC50 (nM) and Ymin (% remaining)) are shown below. All CK1α data was generated according to Procedure A. GSPT1 data for Examples 1-600, 603-620 and 703-705 was generated according to Procedure A. GSPT1 data for Examples 601, 621-702 and 706-735 was generated according to Procedure B.

CK1α = molecular target: T2, CK1α (Homo sapiens, UniProt P48729+Q96SW2); assay: HiBiT degradation assay, CK1α, Procedure A
T2 construct: CSNK1A1-HiBit KI HEK293(LgBit) Cells; host or cells: HEK293(LgBit) knock-in cells
Outline: (§1)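 Luminescence from HiBiT lytic detection, read after 20 min shaking, gave DC50 and Ymin by 4-parameter fit. Before that, cells (1×10^6 cells/ml, DMEM+10% FBS) sat 6 h at 37° C on 10-point compound series (10 μM–0.005 μM, 0.1% DMSO).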

GSPT1 [2] = molecular target: T1, GSPT1; assay: HiBiT degradation assay, GSPT1, Procedure A; design: HiBit-GSPT1 KI HEK293(LgBit) Cells; host or cells: HEK293(LgBit) knock-in cells
Outline: as §1

T2 sequence (P48729 whole entry): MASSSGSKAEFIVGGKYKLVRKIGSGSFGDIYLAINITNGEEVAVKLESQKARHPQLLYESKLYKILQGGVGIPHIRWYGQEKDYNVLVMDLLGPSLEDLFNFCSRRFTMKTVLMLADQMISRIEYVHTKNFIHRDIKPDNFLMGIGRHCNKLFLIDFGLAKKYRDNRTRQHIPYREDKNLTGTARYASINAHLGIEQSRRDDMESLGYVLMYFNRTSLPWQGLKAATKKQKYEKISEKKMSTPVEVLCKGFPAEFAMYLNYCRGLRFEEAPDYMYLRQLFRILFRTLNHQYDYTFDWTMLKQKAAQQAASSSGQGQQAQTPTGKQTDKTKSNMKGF
T2 sequence (Q96SW2 whole entry): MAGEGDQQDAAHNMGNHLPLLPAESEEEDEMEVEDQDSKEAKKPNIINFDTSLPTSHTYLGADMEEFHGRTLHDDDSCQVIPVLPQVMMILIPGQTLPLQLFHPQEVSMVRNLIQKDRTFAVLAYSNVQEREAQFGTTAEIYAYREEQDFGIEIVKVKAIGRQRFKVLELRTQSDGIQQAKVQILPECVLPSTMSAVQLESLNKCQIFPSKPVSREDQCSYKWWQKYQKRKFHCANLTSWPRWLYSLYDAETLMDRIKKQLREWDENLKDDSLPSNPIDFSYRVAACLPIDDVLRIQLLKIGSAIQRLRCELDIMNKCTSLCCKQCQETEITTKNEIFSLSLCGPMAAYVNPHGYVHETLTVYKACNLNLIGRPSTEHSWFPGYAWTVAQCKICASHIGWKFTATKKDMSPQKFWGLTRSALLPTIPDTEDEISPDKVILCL
T2 sequence (Q16531 whole entry partner): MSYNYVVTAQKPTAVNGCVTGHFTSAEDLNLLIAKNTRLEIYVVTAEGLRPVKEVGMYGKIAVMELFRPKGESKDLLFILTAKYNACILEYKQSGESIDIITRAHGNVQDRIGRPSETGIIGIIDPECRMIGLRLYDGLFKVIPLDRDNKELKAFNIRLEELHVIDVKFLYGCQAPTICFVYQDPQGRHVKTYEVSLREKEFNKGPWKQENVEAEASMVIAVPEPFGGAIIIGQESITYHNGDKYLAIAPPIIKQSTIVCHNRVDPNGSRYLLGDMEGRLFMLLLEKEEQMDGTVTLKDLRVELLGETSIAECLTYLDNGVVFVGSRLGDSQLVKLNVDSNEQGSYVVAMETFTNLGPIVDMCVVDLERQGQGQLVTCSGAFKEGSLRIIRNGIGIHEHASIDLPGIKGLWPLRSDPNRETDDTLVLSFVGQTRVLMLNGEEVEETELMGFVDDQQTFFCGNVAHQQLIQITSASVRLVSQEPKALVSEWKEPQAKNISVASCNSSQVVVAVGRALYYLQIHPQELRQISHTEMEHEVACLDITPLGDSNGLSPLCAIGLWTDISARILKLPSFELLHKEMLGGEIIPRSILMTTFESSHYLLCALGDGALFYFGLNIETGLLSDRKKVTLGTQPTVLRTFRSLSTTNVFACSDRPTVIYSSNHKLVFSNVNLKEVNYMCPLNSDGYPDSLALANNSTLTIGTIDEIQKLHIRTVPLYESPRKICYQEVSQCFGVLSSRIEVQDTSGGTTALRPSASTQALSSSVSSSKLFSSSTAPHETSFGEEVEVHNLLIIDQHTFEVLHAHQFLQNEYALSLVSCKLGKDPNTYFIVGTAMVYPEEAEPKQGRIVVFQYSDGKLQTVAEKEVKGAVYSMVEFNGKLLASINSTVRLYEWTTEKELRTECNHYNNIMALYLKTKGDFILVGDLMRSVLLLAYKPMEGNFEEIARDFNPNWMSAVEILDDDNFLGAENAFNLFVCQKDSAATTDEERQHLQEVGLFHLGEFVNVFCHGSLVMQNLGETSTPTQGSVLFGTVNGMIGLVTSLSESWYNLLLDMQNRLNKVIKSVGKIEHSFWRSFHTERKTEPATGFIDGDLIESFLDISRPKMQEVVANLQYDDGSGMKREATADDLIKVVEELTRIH
T1 sequence (P15170 whole entry): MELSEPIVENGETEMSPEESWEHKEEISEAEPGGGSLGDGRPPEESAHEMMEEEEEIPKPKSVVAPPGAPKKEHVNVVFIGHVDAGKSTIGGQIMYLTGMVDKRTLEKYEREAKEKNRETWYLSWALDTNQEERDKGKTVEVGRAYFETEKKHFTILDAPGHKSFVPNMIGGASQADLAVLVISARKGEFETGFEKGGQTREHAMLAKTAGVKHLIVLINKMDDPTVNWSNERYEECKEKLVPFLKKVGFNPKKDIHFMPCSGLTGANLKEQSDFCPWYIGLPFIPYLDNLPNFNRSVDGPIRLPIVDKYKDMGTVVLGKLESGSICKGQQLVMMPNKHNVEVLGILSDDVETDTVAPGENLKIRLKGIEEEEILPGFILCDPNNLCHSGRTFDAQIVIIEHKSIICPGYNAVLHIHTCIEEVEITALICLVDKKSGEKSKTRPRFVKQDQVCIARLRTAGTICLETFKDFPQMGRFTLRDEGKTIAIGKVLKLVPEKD
T1 sequence (Q96SW2 whole entry): as the sequence (Q96SW2 whole entry) above
T1 sequence (Q16531 whole entry partner): as the sequence (Q16531 whole entry partner) above

Cn1cc(-c2ccc3c(c2)CN(C2CCC(=O)NC2=O)C3=O)nc1[C@H]1CC[C@H](C(F)(F)F)CC1 (stereo partly shown) [Example 601, 3-(5-(1-methyl-2-((1r,4r)-4-(trifluoromethyl)cyclohexyl)-1H-imidazol-4-yl)-1-oxoisoindolin-2-yl)piperidine-2,6-dione]
DC50 (GSPT1 [1]): ≥ 25 nM
GSPT1 Ymin (GSPT1 [1]): E (E = >25-75% remaining)
CK1α Ymin (CK1α): E (E = >25-75% remaining)
DC50 (CK1α): ≥ 25 nM

Cn1nc(-c2ccc3c(c2)CN(C2CCC(=O)NC2=O)C3=O)nc1N1CCOCC1 (stereo not shown) [Example 602, 3-(5-(1-methyl-5-morpholino-1H-1,2,4-triazol-3-yl)-1-oxoisoindolin-2-yl)piperidine-2,6-dione]
DC50 (GSPT1 [1]): ≥ 25 nM
GSPT1 Ymin (GSPT1 [1]): F (F = >75-100% remaining)
CK1α Ymin (CK1α): E (E = >25-75% remaining)
DC50 (CK1α): < 25 nM

Cn1c(C2CCOCC2)nc(-c2ccc3c(c2)CN(C2CCC(=O)NC2=O)C3=O)c1C1CC1 (stereo not shown) [Example 604, 3-(5-(5-cyclopropyl-1-methyl-2-(tetrahydro-2H-pyran-4-yl)-1H-imidazol-4-yl)-1-oxoisoindolin-2-yl)piperidine-2,6-dione]
DC50 (GSPT1 [2]): ≥ 25 nM
GSPT1 Ymin (GSPT1 [2]): F (F = >75-100% remaining)
CK1α Ymin (CK1α): C (C = 0-10% remaining)
DC50 (CK1α): < 25 nM

Cn1nc(-c2ccc3c(c2)CN(C2CCC(=O)NC2=O)C3=O)nc1C1CCC(C)(C)CC1 (stereo not shown) [Example 605, 3-(5-(5-(4,4-dimethylcyclohexyl)-1-methyl-1H-1,2,4-triazol-3-yl)-1-oxoisoindolin-2-yl)piperidine-2,6-dione]
DC50 (GSPT1 [2]): ≥ 25 nM
GSPT1 Ymin (GSPT1 [2]): F (F = >75-100% remaining)
CK1α Ymin (CK1α): E (E = >25-75% remaining)
DC50 (CK1α): < 25 nM

O=C1CCC(N2Cc3cc(-n4cncc4-c4ccccc4)ccc3C2=O)C(=O)N1 (stereo not shown) [Example 607, 3-(1-oxo-5-(5-phenyl-1H-imidazol-1-yl)isoindolin-2-yl)piperidine-2,6-dione]
DC50 (GSPT1 [2]): ≥ 25 nM
GSPT1 Ymin (GSPT1 [2]): F (F = >75-100% remaining)
CK1α Ymin (CK1α): E (E = >25-75% remaining)
DC50 (CK1α): ≥ 25 nM

Cn1nc(-c2ccc3c(c2)CN(C2CCC(=O)NC2=O)C3=O)nc1N1CCC2(CC1)CC2 (stereo not shown) [Example 608, 3-(5-(1-methyl-5-(6-azaspiro[2.5]octan-6-yl)-1H-1,2,4-triazol-3-yl)-1-oxoisoindolin-2-yl)piperidine-2,6-dione]
DC50 (GSPT1 [2]): ≥ 25 nM
GSPT1 Ymin (GSPT1 [2]): F (F = >75-100% remaining)
CK1α Ymin (CK1α): D (D = >10- 25% remaining)
DC50 (CK1α): < 25 nM

Cn1nc(-c2ccc3c(c2)CN(C2CCC(=O)NC2=O)C3=O)nc1N1Cc2ccccc2C1 (stereo not shown) [Example 609, 3-(5-(5-(isoindolin-2-yl)-1-methyl-1H-1,2,4-triazol-3-yl)-1-oxoisoindolin-2-yl)piperidine-2,6-dione]
DC50 (GSPT1 [2]): ≥ 25 nM
GSPT1 Ymin (GSPT1 [2]): F (F = >75-100% remaining)
CK1α Ymin (CK1α): E (E = >25-75% remaining)
DC50 (CK1α): < 25 nM

CC(C)n1nc(-c2ccccc2)nc1-c1ccc2c(c1)CN(C1CCC(=O)NC1=O)C2=O (stereo not shown) [Example 610, 3-(5-(1-isopropyl-3-phenyl-1H-1,2,4-triazol-5-yl)-1-oxoisoindolin-2-yl)piperidine-2,6-dione]
DC50 (GSPT1 [2]): ≥ 25 nM
GSPT1 Ymin (GSPT1 [2]): E (E = >25-75% remaining)
CK1α Ymin (CK1α): D (D = >10- 25% remaining)
DC50 (CK1α): < 25 nM

Cn1nc(-c2ccc3c(c2)CN(C2CCC(=O)NC2=O)C3=O)nc1N1CCCCCC1 (stereo not shown) [Example 611, 3-(5-(5-(azepan-1-yl)-1-methyl-1H-1,2,4-triazol-3-yl)-1-oxoisoindolin-2-yl)piperidine-2,6-dione]
DC50 (GSPT1 [2]): ≥ 25 nM
GSPT1 Ymin (GSPT1 [2]): F (F = >75-100% remaining)
CK1α Ymin (CK1α): C (C = 0-10% remaining)
DC50 (CK1α): < 25 nM

Cn1nc(-c2ccc3c(c2)CN(C2CCC(=O)NC2=O)C3=O)nc1N1CCC(C)(C)CC1 (stereo not shown) [Example 612, 3-(5-(5-(4,4-dimethylpiperidin-1-yl)-1-methyl-1H-1,2,4-triazol-3-yl)-1-oxoisoindolin-2-yl)piperidine-2,6-dione]
DC50 (GSPT1 [2]): ≥ 25 nM
GSPT1 Ymin (GSPT1 [2]): F (F = >75-100% remaining)
CK1α Ymin (CK1α): D (D = >10- 25% remaining)
DC50 (CK1α): < 25 nM

Cn1nc(-c2ccc3c(c2)CN(C2CCC(=O)NC2=O)C3=O)nc1N1CCC(F)(F)CC1 (stereo not shown) [Example 613, 3-(5-(5-(4,4-difluoropiperidin-1-yl)-1-methyl-1H-1,2,4-triazol-3-yl)-1-oxoisoindolin-2-yl)piperidine-2,6-dione]
DC50 (GSPT1 [2]): ≥ 25 nM
GSPT1 Ymin (GSPT1 [2]): F (F = >75-100% remaining)
CK1α Ymin (CK1α): E (E = >25-75% remaining)
DC50 (CK1α): < 25 nM

Cn1nc(-c2ccc3c(c2)CN(C2CCC(=O)NC2=O)C3=O)nc1[C@H]1CC[C@H](C)CC1 (stereo partly shown) [Example 616, 3-(5-(1-methyl-5-((1r,4r)-4-methylcyclohexyl)-1H-1,2,4-triazol-3-yl)-1-oxoisoindolin-2-yl)piperidine-2,6-dione]
DC50 (GSPT1 [2]): ≥ 25 nM
GSPT1 Ymin (GSPT1 [2]): F (F = >75-100% remaining)
CK1α Ymin (CK1α): E (E = >25-75% remaining)
DC50 (CK1α): ≥ 25 nM

Cn1nc(-c2ccc3c(c2)CN(C2CCC(=O)NC2=O)C3=O)nc1[C@H]1CC[C@@H](C)CC1 (stereo partly shown) [Example 617, 3-(5-(1-methyl-5-((1s,4s)-4-methylcyclohexyl)-1H-1,2,4-triazol-3-yl)-1-oxoisoindolin-2-yl)piperidine-2,6-dione]
DC50 (GSPT1 [2]): < 25 nM
GSPT1 Ymin (GSPT1 [2]): F (F = >75-100% remaining)
CK1α Ymin (CK1α): E (E = >25-75% remaining)
DC50 (CK1α): < 25 nM

Cc1cn(-c2ccc3c(c2)CN(C2CCC(=O)NC2=O)C3=O)nc1-c1ccccc1 (stereo not shown) [Example 618, 3-(5-(4-methyl-3-phenyl-1H-pyrazol-1-yl)-1-oxoisoindolin-2-yl)piperidine-2,6-dione]
DC50 (GSPT1 [2]): ≥ 25 nM
GSPT1 Ymin (GSPT1 [2]): F (F = >75-100% remaining)
CK1α Ymin (CK1α): D (D = >10- 25% remaining)
DC50 (CK1α): < 25 nM

Cn1nc(-c2ccc3c(c2)CN(C2CCC(=O)NC2=O)C3=O)nc1-c1ccc(F)cc1 (stereo not shown) [Example 623, 3-(5-(5-(4-fluorophenyl)-1-methyl-1H-1,2,4-triazol-3-yl)-1-oxoisoindolin-2-yl)piperidine-2,6-dione]
DC50 (GSPT1 [1]): < 25 nM
GSPT1 Ymin (GSPT1 [1]): F (F = >75-100% remaining)
CK1α Ymin (CK1α): D (D = >10- 25% remaining)
DC50 (CK1α): < 25 nM

Cn1cc(-c2ccc3c(c2)CN(C2CCC(=O)NC2=O)C3=O)nc1-c1ccccc1O (stereo not shown) [Example 624]
DC50 (GSPT1 [1]): < 25 nM
GSPT1 Ymin (GSPT1 [1]): F (F = >75-100% remaining)
CK1α Ymin (CK1α): C (C = 0-10% remaining)
DC50 (CK1α): < 25 nM

COc1ccc(Cn2cc(-c3nc(-c4ccc5c(c4)CN(C4CCC(=O)NC4=O)C5=O)cn3C)cn2)cc1 (stereo not shown) [Example 625]
DC50 (GSPT1 [1]): ≥ 25 nM
GSPT1 Ymin (GSPT1 [1]): F (F = >75-100% remaining)
CK1α Ymin (CK1α): C (C = 0-10% remaining)
DC50 (CK1α): < 25 nM

Cn1cc(-c2ccc3c(c2)CN(C2CCC(=O)NC2=O)C3=O)nc1-c1cccc(C(F)F)c1 (stereo not shown) [Example 626]
DC50 (GSPT1 [1]): ≥ 25 nM
GSPT1 Ymin (GSPT1 [1]): F (F = >75-100% remaining)
CK1α Ymin (CK1α): C (C = 0-10% remaining)
DC50 (CK1α): < 25 nM

Cn1cc(-c2ccc3c(c2)CN(C2CCC(=O)NC2=O)C3=O)nc1-c1ccc(O)cc1 (stereo not shown) [Example 627]
DC50 (GSPT1 [1]): ≥ 25 nM
GSPT1 Ymin (GSPT1 [1]): E (E = >25-75% remaining)
CK1α Ymin (CK1α): C (C = 0-10% remaining)
DC50 (CK1α): < 25 nM

Cn1cc(-c2ccc3c(c2)CN(C2CCC(=O)NC2=O)C3=O)nc1-c1ccc(F)c(F)c1 (stereo not shown) [Example 628]
DC50 (GSPT1 [1]): ≥ 25 nM
GSPT1 Ymin (GSPT1 [1]): F (F = >75-100% remaining)
CK1α Ymin (CK1α): D (D = >10- 25% remaining)
DC50 (CK1α): < 25 nM

Cn1cc(-c2ccc3c(c2)CN(C2CCC(=O)NC2=O)C3=O)nc1-c1ccc(Cl)cc1 (stereo not shown) [Example 629]
DC50 (GSPT1 [1]): ≥ 25 nM
GSPT1 Ymin (GSPT1 [1]): F (F = >75-100% remaining)
CK1α Ymin (CK1α): C (C = 0-10% remaining)
DC50 (CK1α): < 25 nM

O=C1CCC(N2Cc3cc(-c4cn(C5CC5)c(-c5ccccc5)n4)ccc3C2=O)C(=O)N1 (stereo not shown) [Example 704, 3-(5-(1-cyclopropyl-2-phenyl-1H-imidazol-4-yl)-1-oxoisoindolin-2-yl)piperidine-2,6-dione]
DC50 (GSPT1 [2]): ≥ 25 nM
GSPT1 Ymin (GSPT1 [2]): F (F = >75-100% remaining)
CK1α Ymin (CK1α): C (C = 0-10% remaining)
DC50 (CK1α): < 25 nM
